Series [1] can be described thus: Foaming power tests (Waring Blender). The series is classed as physicochemical. Particulars: 30 seconds at 8000 rpm; for FS (foam stability, time to regenerate 50 mL of liquid), Test 4 / FV (foam volume), Test 4: 1% by weight solution in 4% sea salt water solution; for FS (foam stability, time to regenerate 50 mL of liquid), Test 3 / FV (foam volume), Test 3: 1% by weight solution in deionized water. The protocol: The foam volume (FV) and the foam stability (FS) were determined by stirring for 30 seconds at high speed (8000 rpm) with a Waring Blender 100 mL of a 1% by weight solution of the inhibitors in deionized water (Test 3) or in a 4% sea salt water solution (Test 4). The foamed composition is then transferred into a graded cylinder for the evaluation of the foam volume and the stability of the foam.
FV represent the volume in mL of foam at the end of the stirring. FS is the time in seconds required to the foamed solution to regenerate 50 mL of liquid. The longer the time, the higher the stability of the foam.

Series [2] in a line: Corrosion tests, Linear Polarization Resistance (LPR). Particulars: 10 ppm by volume inhibitor, synthetic brine, CO2, 200 ppm H2S, 80° C., compared to the blank; for % Protection, 1 hour: after 1 hour; for % Protection, 16 hours: after 16 hours. How it is done: The Linear Polarization Resistance (LPR) measurements were made with a Gamry Electrochemical Instrument system.
The LPR corrosion tests were conducted in 1 L Pyrex jacketed cells. 900 mL of synthetic brine (50/50 v/v 4.0% Seasalt water/Fresh Water) were loaded in the cell placed on a magnetic stirrer, deaerated overnight with CO2 and, finally, saturated with 200 ppm H2S gas just before testing. A clean C1018 Mild Steel rod was inserted in the corrosion cell assembly as sample probe. A graphite rod was used as the counter electrode. The temperature of the solution was brought to 80° C. for the duration of the tests and CO2 was continuously purged at a constant flow rate. The (Test 4) inhibitors were added at 10 ppm by volume of test solution.
The results are reported in Table 4 as % of protection after a fixed period of time compared to the blank, the test solution without any inhibitor, which is considered 100% corrosion.

Series [3] in a line: Gas hydrate inhibition test (Rocking Cell RC5). Details: key: FAIL: The ball is stuck and/or large agglomerations or solid crystals and/or visible deposits on the cell walls.; PASS: The ball is free; solid crystals might be present, but agglomerates (large or small) break up with agitation. The following applies: 2% by weight inhibitor, 4° C., visual evaluation after 16 hours shut-in; for gas hydrate inhibition, Test 2: 20/80 v/v deionized water/diesel; for gas hydrate inhibition, Test 1: 50/50 v/v 4% wt seasalt water/diesel. The protocol:
Gas Hydrate Inhibition Test
The performances of the gas hydrate inhibitors of the invention were evaluated with a Rocking Cell RC5 by PSL Systemtechnik.
Test Fluids • Hydrocarbon: Diesel • Aq. Phase: 4% wt seasalt water or deionized water • Gas: Mix of methane, ethane, propane and butane (various isomers)
The sapphire test cells, containing a stainless steel ball, were filled with the fluids (see Table 1) and 2% by weight of inhibitor and pressurized with the gas mixture.
Each cell was the subjected to a cycle of cooling and rocking consisting of three steps: 1) flowing condition, 2) shut-in and 3) re-start flowing condition. • 1) The pressurized cells were cooled down to 4° C. over a period of 5 hours while rocking. After reaching 4° C., the cells were rocked for 12 hours. • 2) The rocking was stopped and the test cells were kept in horizontal position (shut-in) for 16 hours. • 3) At the end of the shut-in period, rocking was re-started for 4 hours. Finally the cells were heated back up to 20° C.
At the beginning of the third step, the content of the cells was visually evaluated.
Each cycle was replicated three times and the results registered.
The results of the gas hydrate inhibition tests (Table 2) are reported according to the following scale: • FAIL: The ball is stuck and/or large agglomerations or solid crystals and/or visible deposits on the cell walls. • PASS: The ball is free; solid crystals might be present, but agglomerates (large or small) break up with agitation.

With “N,N-dibutyl-N-ethyl-cocooxyethyl ammonium chloride”, in series [1], the “FS (foam stability, time to regenerate 50 mL of liquid), Test 4” value (“FS … Test 4” for short) came out at 59 s; the “FV (foam volume), Test 4” value is given as 172 mL; the “FS (foam stability, time to regenerate 50 mL of liquid), Test 3” value (shortened to “FS … Test 3”) was 97 s; the “FV (foam volume), Test 3” value stood at 210 mL. In series [2], the “% Protection, 1 hour” value turned out to be 78.9% and the “% Protection, 16 hours” value came out at 87.9%.

On to “N,N-dibutyl-N-ethyl-cocooxyethyl ammonium ethyl sulfate”, for which, in series [3], the “gas hydrate inhibition, Test 2” value is “PASS” and the “gas hydrate inhibition, Test 1” value is given as “PASS”. Moreover, in series [1], the “FS … Test 4” value is 46 s; the “FV (foam volume), Test 4” value is on record as 160 mL; the “FS … Test 3” value was found to be 70 s; the “FV (foam volume), Test 3” value came to 185 mL. Besides, in series [2], the “% Protection, 1 hour” value is listed as 81.4% and the “% Protection, 16 hours” value came out at 90.2%.

As to “N,N-dibutyl-N-ethyl-soyaoxyethyl ammonium ethyl sulfate”, in series [1], the “FS … Test 4” value was determined as 118 s; the “FV (foam volume), Test 4” value is listed as 230 mL; the “FS … Test 3” value is 180 s; the “FV (foam volume), Test 3” value worked out at 320 mL.

Consider benzylcocodimethyl ammonium chloride, for which, in series [3], the “gas hydrate inhibition, Test 2” value is “FAIL” and the “gas hydrate inhibition, Test 1” value was “FAIL”. Besides, in series [1], the “FS … Test 4” value was found to be 215 s; the “FV (foam volume), Test 4” value amounted to 430 mL; the “FS … Test 3” value came to 260 s; the “FV (foam volume), Test 3” value is 480 mL. In addition, in series [2], the “% Protection, 1 hour” value worked out at 79.7% and the “% Protection, 16 hours” value amounted to 89.5%.

Values taken from patent US11130902B2, “Gas hydrate inhibitors” (Lamberti SPA, priority 2016, dated 2021).
